The record followed here is ChEMBL document CHEMBL1155189, “Bioactivity-guided isolation of cytotoxic constituents from stem-bark of Premna tomentosa” (Bioorg Med Chem Lett, 2009).

What all share (assay type): functional, cell-based
In one experiment the test system is HepG2. In words: Cytotoxicity against human HepG2 cells after 48 hrs by MTT assay. (In general: Tetrazolium assays rely on reduction of a dye to a coloured formazan, in cell work by metabolically active cells.)
A further experiment concerns A-431. The experiment can be described thus: Cytotoxicity against human A431 cells after 48 hrs by MTT assay.
The test system of another experiment is A549. The experiment can be described thus: Cytotoxicity against human A549 cells after 48 hrs by MTT assay. To be noted: A549, 48 h.
Another experiment concerns HT-29. In words: Cytotoxicity against human HT-29 cells after 48 hrs by MTT assay.
Another experiment relates to MCF7. The experiment can be described thus: Cytotoxicity against human MCF7 cells after 48 hrs by MTT assay. To be noted: MCF7, 48 h.
Setting [1] is: Homo sapiens, HepG2, 48 h, read-out: IC50.
The mark [2] stands for this setting: Homo sapiens, HT-29, 48 h, read-out: IC50.

In brackets after ≈: the same amount, converted by molar mass.

On to `CC(CO)c1cc2c(c(O)c1O)C[C@@]1(O)CCCC(C)(C)[C@@H]1CC2` (stereo not given in full), for which the IC50 in the experiment with HepG2 (setting [1]) is 18.6 µg/mL (≈ 55.7 µM); in the experiment on A-431, “Not Active”; in the experiment on A549 it was 18.6 µg/mL (≈ 55.7 µM); in the experiment on HT-29 (setting [2]), 16.2 µg/mL (≈ 48.5 µM); in the experiment on MCF7, 16 µg/mL (≈ 47.7 µM).

Turning to `CC(CO)c1cc(O)c2c(c1)[C@@H](O)C[C@H]1C(C)(C)CCC[C@]1(O)C2` (stereo not given in full), the IC50 in the experiment on HepG2 (setting [1]) is 34.4 µg/mL (≈ 103 µM); in the experiment on A-431 it was “Not Active”; with A549, 21.4 µg/mL (≈ 63.9 µM); in the experiment on HT-29 (setting [2]), 14.6 µg/mL (≈ 43.6 µM); in the experiment on MCF7, 15.8 µg/mL (≈ 47.4 µM).

As to `CC(CO)c1cc(O)c2c(c1)CC[C@H]1C(C)(C)CCC[C@]1(O)C2` (stereo not given in full), the IC50 entry is “Not Active” in the experiment on HepG2 (hepg2); “Not Active” with A-431; 43.6 µg/mL (≈ 137 µM) in the experiment with A549; “Not Active” with HT-29 (ht-29); 80.8 µg/mL (≈ 254 µM) in the experiment on MCF7.

The term IC50 denotes the point on the concentration scale where inhibition reaches its midpoint.
